Target: T1, TRIM66-WT965-1160 (Homo sapiens, UniProt O15016)
T1 construct: ITC titration: titrating TRIM66-WT965-1160 with various histone H3 peptides; GST (N, cleaved yes); made in house; host or cells: Escherichia coli BL21 (DE3)
T1 sequence (O15016 1100-1295): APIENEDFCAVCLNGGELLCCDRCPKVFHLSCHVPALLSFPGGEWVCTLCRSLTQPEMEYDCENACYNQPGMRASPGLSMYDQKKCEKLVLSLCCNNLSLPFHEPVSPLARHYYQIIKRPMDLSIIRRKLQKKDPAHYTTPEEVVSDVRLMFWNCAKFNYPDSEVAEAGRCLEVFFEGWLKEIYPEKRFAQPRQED
Assay: ITC, PHD-Bromodomain wild type
Type: binding
Details: ITC, MicroCal PEAQ-ITC, 25 °C, 20 mM Tris, 100 mM NaCl, pH 7.5; single measurement, error from curve fit; Weak binding = ITC curves cannot be fitted reliably; N.D. = no detectable binding
From the text: We next performed the glutathione S-transferase (GST) pulldown assays of the TRIM66-WT965-1160 against the calf thymus histones to verify the histone-binding ability of TRIM66 PHD-Bromodomain. […] The PHD of TRIM66 shared a low conservation with those of ING4, PHF2, and BPTF, and lacked the conserved aromatic residues, which were necessary for binding H3K4me2/3[40]–[42] (Supplementary Fig. 2b). Nevertheless, TRIM66 was highly conserved in sequence and structure with the PHDs of TRIM24 and TRIM33 (Fig. 1c and Supplementary Fig. 2b), which were reported to bind H3K4me0[5],[6]; thus, we speculated that the PHD of TRIM66 could bind H3K4me0. To verify this hypothesis, we performed isothermal titration calorimetry (ITC)-based binding assays. […] Based on previous researches reporting the acetyl-lysine binding partners of Bromodomain[3]–[12], we chose a series of related peptides derived from H3 and H4, to test their interactions with TRIM66-WT965-1160 by ITC experiments. […] We further found the acetylated state of K56 was necessary for this binding (Supplementary Fig. 3b).
We next titrated the TRIM66-WT965-1160 with a series of R2-methylated H3 peptides through ITC assays. […] This finding was consistent with the structural observation that each NηH atom of the R2 formed a hydrogen bond with residues in protein (Fig. 2d).
The DNA fragments of human TRIM66_968-1160, TRIM24_824-1006, and TRIM33_882-1087 were amplified from a human bone marrow cDNA library using a PCR-based cloning strategy. The fragments of TRIM66-WT968-1160 were inserted into a pGEX-4T-1 plasmid (GE Healthcare). The fragments of TRIM24_824-1006 and TRIM33_882-1087 were ligated into a pET-SUMO-28a (+) plasmid (Novagen). The DNA fragments of TRIM66-MUT968-1160 and TRIM66-WT965-1160 with codon optimization were synthesized by General Biosystems (sequence was shown in Supplementary Methods) and inserted into a pGEXT-4T-1 plasmid (GE Healthcare). Mutants of TRIM66 PHD-Bromo were generated through PCR using the Mutant Best kit (Takara). The mutation of point mutant based on the codon-optimized DNA sequence of TRIM66-WT965-1160. All constructs were expressed in Escherichia coli BL21 (DE3). The construct of ASF1a1-156 inserted into a pRSFDuet plasmid (courtesy of Ruiming Xu Lab, Institute of Biophysics, Chinese Academy of Sciences) was expressed in E. coli BL21 (DE3) RIL. The construct of full-length H4 inserted into a pET3a plasmid was expressed in E. coli BL21 (DE3). The expression of full-length histone H3K56ac was performed in BL21 (DE3) cells transformed with pBK-AxcKRS3 and pET22b encoding H3 with amber codons at the K56 site[12]. The DNA fragment of full-length TRIM66 was synthesized by General Biosystems and ligated into fugw vector (Addgene). See the information of protein sequence in Supplementary Table 1.
The calorimetric experiments were performed at 25 °C using a MicroCal PEAQ-ITC. The proteins were dialyzed using a buffer containing 20 mM Tris and 100 mM NaCl at pH 7.5. Lyophilized peptides were dissolved in the same buffer and adjusted to pH 7.5 prior to use. Peptide concentrations were estimated from the quantitative NMR experiments[73],[74]. ITC measurements were performed via injection of 0.7–4 mM peptide into a cell containing 0.12 mM TRIM24-PHD-Bromo, 0.05 mM TRIM33 PHD-Bromo, and 0.05 or 0.11–0.15 mM TRIM66-PHD-Bromo (or its mutants). The ITC data were subsequently analyzed using the MicroCal PEAQ-ITC analysis software.

Kd: 15.7 ± 0.64 µM
Compound: C[C@H](N)C(=O)N[C@@H](CCCNC(=N)N)C(=O)N[C@H](C(=O)N[C@@H](CCCCN)C(=O)N[C@@H](CCC(N)=O)C(=O)N[C@H](C(=O)N[C@@H](C)C(=O)N[C@@H](CCCNC(=N)N)C(=O)N[C@@H](CCCCN)C(=O)N[C@@H](CO)C(=O)N[C@H](C(=O)NCC(=O)O)[C@@H](C)O)[C@@H](C)O)[C@@H](C)O [H3_1-12]
